Results: patent publication US5470873A, “Diabetes prevention and treatment using gamma-pyrones” (University Technologies International, Inc., priority 1994, dated 1995)

Legend:
[1] = immunosuppressive therapy, humans; cited from earlier work
[2] = Pancreatic insulin content (immunoreactive insulin, radioimmunoassay) in NOD mice; type: in vivo
Method: Insulin was extracted from the pancreas of non-obese diabetic (NOD) mouse by known methods ^33,34. Briefly, deep frozen pancreatic tissue (50% of each pancreas) was placed into phosphate buffered saline (PBS) and then extraction solution A (380 ml absolute alcohol, 20 ml H2 O, 8 ml concentrated HCl and some drops of alcoholic phenol red) was added. This mixture was homogenized with polytron type PT 10-20-[…] in glass tubes (15×125 mm) for 30 seconds in position 5. The homogenized material in the tubes was incubated at 4° C. for 10 hours. At the end of the incubation period, the homogenized material was centrifuged at 800 g for 5 minutes for clarification. The supernatant was saved. The pellet was re-extracted with 1 ml of extraction solution B (356 ml absolute alcohol, 124 ml H2 O and 7.5 ml HCl). The pellet in extraction solution B was incubated for 4 hours at 4° C. and then homogenized with a polytron as described above. The homogenized material was centrifuged at 800 g for 5 minutes. The supernatant was pooled with the supernatant from the first extraction. The pooled supernatant was neutralized with concentrated NH40 H (about 10 μl ) until the phenol red turned to purple. The neutralized supernatant was precipitated at 4° C. and then centrifuged at 800 g for 5 min. The supernatant, which contains insulin, was used for the measurement of insulin by radioimmunoassay. The concentration of immunoreactive insulin (IRI) in the pancreas from DPD-treated and untreated NOD mice was measured by radioimmunoassay techniques ^42-44 using mouse insulin as a standard. Briefly, the extracted samples from NOD mice were mixed with […], and anti-insulin antibody. The mixed materials were incubated for 2 hours at room temperature. At the end of the incubation period, anti-guinea pig IgG raised in sheep was added and the mixture was incubated for 30 minutes at room temperature. At the end of the incubation, the samples were centrifuged at 1500 g for 10 minutes. The supernatant was completely removed. The radioactivity of the pellets was measured. The percent of activity was determined by the following formula: [formula] On the basis of % activity in standards, a standard curve was constructed. The concentration of each unknown sample from maltol-treated or untreated NOD pancreas was read on the basis of the standard curve. […] The maltol-treated mice have insulin levels that are similar to the non-diabetic, untreated animals. About 75% of the maltol-treated mice have insulin levels over 80 μg/g pancreas and about 25% have insulin levels between 55-75 μg/g pancreas.

[3] = Inhibition of hydrogen peroxide induced free radical production (luminol chemiluminescence); type: biochemical; conditions: for Chemiluminescence: 3 μM luminol, 20 μl H2O2, without maltol 11845.0 ± 1414.0
Method: One of the possible mechanisms for the destruction of pancreatic beta cells in autoimmune Type I diabetes is their damage by free radicals and cytokines released from macrophages and T lymphocytes. It is hypothesized that maltol can inhibit the action of these released radicals and thus prevent Type I diabetes. We measured the effect of maltol on the inhibition of free radicals produced by hydrogen peroxide.
Chemiluminescence produced by hydrogen peroxide was measured using a liquid scintillation counter (LKB 1217/1217 Rack Beta) set to the tritium channel. Briefly, luminol (5-amino-2,3-dihydro-l,4-phthalazinedione) was dissolved in dimethylsulfoxide and diluted with Krebs-Ringer bicarbonate buffer (pH 7.4) containing […] Hepes and no glucose. The final concentration of dimethylsulfoxide was 0.06 μl/ml. Under these assay conditions, 3 μM luminol and various amounts of hydrogen peroxide ranging from 5-20μl were mixed with 5 ml of Krebs-Ringer bicarbonate buffer, with or without maltol. Chemiluminescence was measured for a 30 second period beginning at 20 seconds after the addition of hydrogen peroxide.

[4] = Blood glucose levels in NOD mice (glucose oxidase method); type: in vivo; conditions: 35 weeks of age
Method: (§1) NOD mice were dosed with maltol to evaluate its effect on the pathogenesis of type I diabetes. Mice received 5 mg maltol/mouse every other day from age 2 weeks until they were 20 weeks old. Maltol extracted from ginseng as described in Example 2 was used for the first 10 weeks, then maltol purchased from Sigma Co., St. Louis, MO was used thereafter. The mice were kept until they were 35 weeks old. Urine glucose was measured at 3-day intervals from 10 to 35 weeks of age. Urinary glucose and ketone levels were determined using Diastix and Ketostix reagent slips (Miles, Ontario, Canada). Individual mice were classified as being diabetic on the basis of positive glycosuria^38. […] In contrast, 78% of age-matched control mice (22 mice) spontaneously developed autoimmune diabetes. At 35 weeks of age, fasting (8 hours of fasting) and non-fasting blood glucose levels were measured. Blood was obtained from the retro-orbital venous plexus of fasting and nonfasting NOD mice. Glucose levels were measured enzymatically by the glucose oxidase method with o-dianisidine dihydrochloride as the reactive dye ^39-41 . The mean nonfasting blood glucose level of 35 ICR mice (nondiabetic control mice; NOD mice were derived from ICR mice) was 149±27 mg/dl. Any non-fasting mouse with a blood glucose level greater than 230 mg/dl (3 SD above the mean) was scored as diabetic. The mean fasting blood glucose level of 38 ICR mice was 137±28 mg/dl. Any fasting mouse with a blood glucose level greater than 221 mg/dl (3 SD above the mean) was scored as diabetic.

[5] = Prevention of clinical diabetes (glycosuria) in NOD mice; type: in vivo
Method: as §1

[6] = test system: pancreatic beta cells; assay: Destruction of pancreatic beta cells detected by fluorescein labelled anti-insulin antibody; type: in vivo, NOD mice; conditions: compared to untreated, diabetic NOD mice
Method: Fluorescein isothiocyanate-labelled anti-insulin antibody was prepared as described previously 45. Briefly, gamma globulin that was prepared by immunizing guinea pigs with glutaraldehyde polymerized porcine insulin and purified by Sephadex G-200 chromatography was purchased from Index Corp., Glenwood, Ill, USA. This material was labelled with FITC. Unconjugated FITC was removed by dialysis against 0.01M PBS (pH 7.5) and by gel filtration through a Sephadex G-25. The labelled gamma globulin was subsequently absorbed with acetone-treated mouse liver powder to eliminate nonspecific fluorescence. Pancreatic sections (from 25% of each pancreas) prepared from maltol-treated and untreated NOD mice were stained with FITC-labelled anti-insulin antibody and examined under a fluorescent microscope as described elsewhere 47.48. Briefly, pancreatic sections on the slides were flooded with FITC-labelled anti-insulin antibody and incubated in a humidity chamber overnight at 4° C. in the dark. The slides were then washed in three changes of cold PBS for a total of 20 min to remove any unattached antibody, mounted with Elvanol and observed with an Olympus fluorescence microscope ^45. As it is difficult to determine whether the lymphocytes observed in the pancreatic islets are contributing to beta cell destruction, another method was used to determine whether beta cells from maltol-treated or untreated NOD mice were destroyed or not. Sections of pancreatic islets were stained with a fluorescein-labelled anti-insulin antibody and the number of insulin-containing beta cells in the islets was estimated.

[7] = test system: pancreatic islets; assay: Histologic changes of pancreatic islets (hematoxylin and eosin); type: in vivo, NOD mice; conditions: compared to untreated, diabetic NOD mice
Description: Maltol-treated and untreated NOD mice were sacrificed and 25% of each pancreas was fixed in 6% Formalin. Paraffin-embedded sections were stained with hematoxylin and eosin and examined under an Olympus light microscope ^49. To see whether there are any histological differences between the pancreatic islets of DPD-treated and untreated NOD mice, the pancreatic islets of 35 week old mice were examined with the light microscope after staining with hematoxylin and eosin. […] The rest of their islets were rated as having either severe (22%), moderate (27%), mild (25%) or no (6%) insulitis. […] In addition, there were histopathological changes in their pancreatic islets that were rated as moderate (22% of examined islets), mild (30%) or as having no insulitis (15%).

[8] = oral; flavoring agents for foods; cited from earlier work

SMILES	Effect on course of IDDM [1]	Pancreatic insulin / protection from beta cell destruction (in words) ([2]; NOD mice)	Pancreatic insulin level ([2]; about 25% of the maltol-treated mice)	Pancreatic insulin level ([2]; about 75% of the maltol-treated mice, majority of untreated less than 10 μg/g)	Percent inhibition of free radical production ([3]; 0.2 mM maltol) [%]	Chemiluminescence ([3]; 0.2 mM maltol) [cpm]	Percent inhibition of free radical production ([3]; 2.0 mM maltol) [%]	Chemiluminescence ([3]; 2.0 mM maltol) [cpm]	Percent inhibition of free radical production ([3]; 80 mM maltol) [%]	Chemiluminescence ([3]; 80 mM maltol) [cpm]	Mean fasting blood glucose ([4]; fasting (8 hours), untreated diabetic 334±47) [mg/dL]	Mean non-fasting blood glucose ([4]; non-fasting, untreated diabetic 342±45) [mg/dL]	Success in preventing clinical diabetes [5] [%]	Mice showing signs of clinical diabetes ([5]; 5 mg/mouse every other day, age 2 to 20 weeks, urine glucose 10 to 35 weeks, untreated 78%) [%]	Prevention / recurrence of clinical diabetes (in words) ([5]; observed to 35 weeks, incl. 15 weeks after cessation of treatment)	Destruction of pancreatic beta cells (in words) [6]	Lymphocytic infiltration of the pancreatic islets (in words) [7]	Toxicity when taken orally [8]
O=P1(N(CCCl)CCCl)NCCCO1 (stereo not shown) [cyclophosphamide]	did not alter the course of the disease	–	–	–	–	–	–	–	–	–	–	–	–	–	–	–	–	–
Cc1occc(=O)c1O [maltol, 3-Hydroxy-2-methyl-4-pyrone]	–	substantial protection from beta cell destruction	55-75 μg/g pancreas	over 80 μg/g pancreas	60	4829.3 ± 792.1	98	210. ± 55.1	99.7	31.6 ± 3.1	92 ± 17	132 ± 19	100	0	can prevent clinical diabetes completely	significantly less destruction of pancreatic beta cells	much less lymphocytic infiltration of the pancreatic islets	very low toxicities when taken orally
CCc1occc(=O)c1O [ethyl maltol]	–	–	–	–	–	–	–	–	–	–	–	–	–	–	–	–	–	very low toxicities when taken orally
